Test system: HIV-infected CD4 T cells
Assay: PGT121 antibody-mediated killing of HIV-infected CD4 T cells, monocyte effector model
Type: cell-based, human
Conditions: monocytes from 1 subject pre-treated 1 day with 11 or 33 nM
Text: NK cells and monocytes mediate antibody-dependent cellular cytotoxicity (ADCC) and antibody-dependent cellular phagocytosis (ADCP) respectively. To assess the ability of the compound of Example 15 to enhance ADCC and ADCP, two models were developed using monocytes or PBMCs as effector cells and HIV-infected CD4 T cells as target cells. PBMCs were isolated from 3 healthy subjects' leukaphereses (AlICells, participant IDs A4593, A4596, A4606), as described above. CD4 T cells were isolated from PBMCs using negative selection magnetic beads (EasySep, StemCell Technologies). CD4 T cells were spinfected with HIV-1 isolate 92HT593 (NIH AIDS Reagent Program) and cultured for 5 days at 37° C. For the PBMC model, autologous PBMCs were cultured for 5 days with vehicle control (DMSO) or Example 15 at 100 or 1000 nM. […] Marker staining was measured by flow cytometry using a LSR Fortessa (BD Biosciences) and analyzed with FlowJo software (TreeStar). The percent killing was determined by calculating the reduction of p24+CD4+ T cells mediated by PGT121 antibody relative to a no antibody control.
PBMCs (FIG. 3) or monocytes (FIG. 4) were treated with DMSO or TLR8 agonist for 5 days (FIG. 3) or 1 day (FIG. 4) and then co-cultured for 1 day with autologous HIV-infected CD4 T cells−/+anti-HIV Env antibody PGT121. Reductions in %p24+ CD4+ T cells, relative to no antibody control, were measured by FACS. […]

CCCC[C@H](CO)Nc1nc(N)nc2cccnc12 [Example 15]
PGT121-mediated killing of HIV-infected CD4+ T cells compared to DMSO control: markedly enhanced
